From US5523315A, “N-(hydroxyethyl)butanediamide derivatives” (Bio-Mega/Boehringer Ingelheim Research Inc., priority 1993, dated 1996)

Target: T1, human renin (Homo sapiens, UniProt P00797)
T1 construct: A human plasma pool is used as the source of both the substrate (angiotensinogen) and the enzyme (renin); from tissue; host or cells: pooled human plasma
T1 sequence (P00797 67-406): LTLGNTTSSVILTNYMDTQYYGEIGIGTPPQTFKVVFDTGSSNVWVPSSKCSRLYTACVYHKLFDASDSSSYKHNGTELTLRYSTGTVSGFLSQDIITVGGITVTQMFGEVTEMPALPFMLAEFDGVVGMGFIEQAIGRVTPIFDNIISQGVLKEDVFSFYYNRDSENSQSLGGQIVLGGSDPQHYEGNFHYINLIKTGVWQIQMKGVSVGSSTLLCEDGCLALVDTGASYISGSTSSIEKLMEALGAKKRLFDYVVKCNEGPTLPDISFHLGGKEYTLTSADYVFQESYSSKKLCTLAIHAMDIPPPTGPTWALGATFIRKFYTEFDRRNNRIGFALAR
Experiment: plasma renin assay (inhibition of human renin; angiotensin I generated, measured by radioimmunoassay)
Format: biochemical
Conditions: human plasma pool, pH 6.0, 2 h incubation at 37°
Description: The assay is performed as follows: The test compound (i.e. the inhibitor) is dissolved in dimethylsulfoxide (1 mM stock solution) and diluted with an aqueous buffer solution of 270 mM 2-(N-morpholino)ethanesulfonic acid and 1% human serum albumin (pH 5.85, also containing dimercaprol and 8-hydroxyquinoline sulfate in accordance with the instructions of the RIA kit noted below) to give an assay mixture in which the final dimethylsulfoxide content is 1% (v/v).
A human plasma pool is used as the source of both the substrate (angiotensinogen) and the enzyme (renin). The reaction is initiated by the addition of 50 μL of human plasma pool to 50 μL of various concentrations of inhibitor in the 1% dimethylsulfoxide assay buffer. The plasma renin activity is measured by the amount of angiotensin I generated at pH 6.0 following a 2 h incubation at 37°.
Quantitation of angiotensin I is performed by radioimmunoassay (RIA kit from New England Nuclear-Dupont, Mississauga, ON, Canada). The enzymatic activity of renin is expressed in ng of angiotensin I generated (/mL/2 h). The extent of inhibition of the reaction is determined from the amount of angiotensin I generated in reference to a control prepared without inhibitor. Nonlinear regression analysis is used to calculate the IC50 values, i.e. the molar concentration of the test compound required to cause a 50% inhibition of the enzyme activity.

IC50 | SMILES
89 nM | CC(C)C[C@H](O)[C@H](O)[C@H](CC1CCCCC1)NC(=O)[C@@H](CC(=O)N[C@@H](CO)Cc1ccccc1)CC1CC1 [Compound 13, N^4-(R)-[1-(hydroxymethyl)-2-phenylethyl]-N^1-[1(S)-(cyclohexylmethyl)-2(R),3(S)-dihydroxy-5-methylhexyl]-2(R)-(cyclopropylmethyl)butanediamide]
79 nM | CC(C)C[C@H](O)[C@H](O)[C@H](CC1CCCCC1)NC(=O)[C@@H](CC(=O)N[C@H](CO)Cc1ccccc1)CC1CC1 [Compound 14, N^4-(S)-[1-(hydroxymethyl)-2-phenylethyl]-N^1-[1(S)-(cyclohexylmethyl)-2(R),3(S)-dihydroxy-5-methylhexyl]-2(R)-(cyclopropylmethyl)butanediamide]
80 nM | CC(C)C[C@H](O)[C@H](O)[C@H](CC1CCCCC1)NC(=O)[C@@H](CC(=O)N(Cc1ncc[nH]1)CC1(O)CCCCC1)CC1CC1 [Compound 15, N^4-[(1-hydroxycyclohexyl)methyl]-N^4-(1H-imidazol-2-ylmethyl)-N^1-[1(S)-(cyclohexylmethyl)-2(R),3(S)-dihydroxy-5-methylhexyl]-2(R)-(cyclopropylmethyl)butanediamide]
89 nM | CC(C)C[C@H](O)[C@H](O)[C@H](CC1CCCCC1)NC(=O)[C@@H](CC(=O)N(CC1CC1)CC1(O)CCCCC1)CC1CC1 [Compound 16, N^4-(cyclopropylmethyl)-N^4-[(1-hydroxycyclohexyl)methyl]-N^1-[1(S)-(cyclohexylmethyl)-2(R),3(S)-dihydroxy-5-methylhexyl]-2(R)-(cyclopropylmethyl)butanediamide]
94 nM | CC(C)C[C@H](O)[C@H](O)[C@H](CC1CCCCC1)NC(=O)[C@@H](CC(=O)NCC1(O)CCCCC1)CC1CC1 [Compound 17, N^4-[(1-hydroxycyclohexyl)methyl]-N^1-[1(S)-(cyclohexylmethyl)-2(R),3(S)-dihydroxy-5-methylhexyl]-2(R)-(cyclopropylmethyl)butanediamide]
95 nM | CC(C)C[C@H](O)[C@H](O)[C@H](CC1CCCCC1)NC(=O)[C@@H](CC(=O)N[C@@H](CO)[C@@H](O)c1ccccc1)CC1CC1 [Compound 18, N^4-[2(S)-hydroxy-1(S)-(hydroxymethyl)-2-phenylethyl]-N^1-[1(S)-(cyclohexylmethyl)-2(R),3(S)-dihydroxy-5-methylhexyl]-2(R)-(cyclopropylmethyl)butanediamide]
100 nM | CC(C)C[C@H](O)[C@H](O)[C@H](CC1CCCCC1)NC(=O)[C@@H](CC(=O)N(Cc1ccccn1)CC1(O)CCC(=O)CC1)CC1CC1 [Compound 19, N^4-[(1-hydroxy-4-oxocyclohexyl)methyl]-N^4-(2-pyridinylmethyl)-N^1-[1(S)-(cyclohexylmethyl)-2(R),3(S)-dihydroxy-5-methylhexyl]-2(R)-(cyclopropylmethyl)butanediamide]
115 nM | CC(C)C[C@H](O)[C@H](O)[C@H](CC1CCCCC1)NC(=O)[C@@H](CC(=O)NC[C@H](O)C1CCCCC1)CC1CC1 [Compound 20 (R), N^4-(R)-(2-cyclohexyl-2-hydroxyethyl)-N^1-[1(S)-(cyclohexylmethyl)-2(R),3(S)-dihydroxy-5-methylhexyl]-2(R)-(cyclopropylmethyl)butanediamide]
150 nM | CC(C)C[C@H](O)[C@H](O)[C@H](CC1CCCCC1)NC(=O)[C@@H](CC(=O)NC[C@@H](O)C1CCCCC1)CC1CC1 [Compound 20 (S), N^4-(S)-(2-cyclohexyl-2-hydroxyethyl)-N^1-[1(S)-(cyclohexylmethyl)-2(R),3(S)-dihydroxy-5-methylhexyl]-2(R)-(cyclopropylmethyl)butanediamide]
130 nM | CC(C)C[C@H](O)[C@H](O)[C@H](CC1CCCCC1)NC(=O)[C@@H](CC(=O)N(Cc1ccccc1)CC(C)(C)O)CC1CC1 [Compound 21, N^4-benzyl-N^4-(2-hydroxy-2-methylpropyl)-N^1-[1(S)-(cyclohexylmethyl)-2(R),3(S)-dihydroxy-5-methylhexyl]-2(R)-(cyclopropylmethyl)butanediamide]
